Like-named read-outs stand apart in the source and are kept apart here. Positions of bridges follow the written chain, without caps; N, C: chain ends. No end group written: not given here.
Assays:
[1] = system: human pancreatic adenocarcinoma cell line Capan-1; experiment: Growth curve of the cell line Capan-1 in presence or absence of PCI; format: cell-based; details: for Duplication time: DMEM + 10% FBS (control 85)
Protocol: The growth curve of the human pancreatic adenocarcinoma cell line Capan-1 was determined by culturing the cells in medium DMEM supplemented with 10% of FBS (see Section 4 ..B.1.). Plates with wells were used, each with a surface of 10 cm^2 (Nunc, Denmark). The number of cells initially placed per well was 1×10^5, and changes of medium were made every four days, adding new PCI in the medium in the case of the cells treated with PCI.
Three growth curves were determined (FIG. 10) in absence of PCI and in presence of PCI, in concentrations of 1 μg/mL and of 10 μg/mL. Initially, 45 replica-wells were placed for each treatment. After 15 days, three of the replica-wells of each treatment were taken and their number of cells counted by means of trypsinization and recount employing hemocytometer (for a description of the technique, see Section 4.B.1.). The results of the tests are shown in Table 13, which presents the duplication times calculated from the data.

[2] = system: Int-2 murine insulinoma cell line; experiment: Proliferation of Int-2 cells pretreated with PCI; format: cell-based; details: pretreatment 50 μg/mL of PCI, 7, 20 and 30 days; treatments 7, 8 and 5 days
Protocol: The analysed cell lines were Capan-1, already described, and Int-2. This latter being a murine insulinoma cell line derived from transgenic mice developed in the lab of Dr. M. Frazier. The medium employed for the growth of both lines was DMEM+10%FBS and the culture techniques that were used were identical to those previously described. In the case of the Int-2 cell line, only proliferation tests were performed. They were carried out in the same way as that described in the case of Capan-1, with the unique difference that the number of cells that was put per well in the plate of 96 was 500 instead of 2,000.

[3] = system: mouse melanoma B16HM cell line; experiment: In vitro invasiveness assay through Matrigel membrane; format: cell-based; details: PCI 50 μg/mL
Protocol: In this test, with the aim of determining whether the PCI causes some difference in the invasive capacity of tumoral cells in vitro, the number of cells which had migrated through a membrane of Matrigel© in presence or absence of PCI in the culture medium was determined. The detailed protocol is as follows:
1. The wells of Matrigel© which are going to be employed are placed at room temperature on an empty plate of 24.
2. The wells are hydrated by adding […] of tempered full medium and kept for 1.5-2.0 h.
3. After the hydration, take the medium carefully out of the wells; later on, 200,000 cells are added to two wells, respectively. In one of them, we will add the medium in which the cells grow and in the other, medium with PCI.
4. After 17 h of culture in an incubator at 37° C., 90% of relative humidity and 5% of CO2, the samples are processed as follows:
4.11. Look at the microscope and count the number of cells that have migrated through the Matrigel filter.
The invasiveness tests in vitro were carried out with the mouse melanoma B16HM cell line selected as previously described (Barberàr-Guillem, E. et al. (1988) Invasion Metastasis, 8: 266-284). The wells were placed with medium in absence of PCI (control) and in presence of PCI, at a concentration of 50 μg/mL. […]

[4] = system: mouse melanoma B16 cell line; experiment: Metastasis test in vivo, liver metastatic focuses after intrasplenic B16 inoculation; parameters: species or system mice C57BL/6J; details: killed day 11 (control 32±7)
Protocol: In order to study the effect of the PCI on the metastatic capacity of the tumoral cells, mouse melanoma B16 cell line are used used because this line is singeneic with the mice. These cells, intrasplenically inoculated in singeneic mice, after 7 days, start to develop metastasis in the liver of the mouse. The following material was employed:
A control group: consisting of 5 mice to which 300,000 cells dissolved in 0.1 mL of alphaMEM-Hepes were inoculated. The mice, previously anaesthetized with nembutal, were inoculated by way of intrasplenic injection, by means of a little incision and subsequently closed with stitches. These mice were killed 11 days after injection of the tumoral cells by cervical dislocation.
Treatment 1: again, 5 mice were inoculated in the same way as those of the control group. Six days after the injection, a daily treatment with 0.1 mg/mL of PCI in 0.1, mL of PBS by way of intraperitoneal injection was started. The animals were also killed on the eleventh day after the injection.
Treatment 2: in this case, the cells inoculated to the mice (also 5 of them) were previously treated in vitro for 4 days in a concentration of 0.1 mg/mL of PCI. […]
Once killed, their liver was extracted. […] Afterwards, the sections were dyed with hematoxyline-eosine and the number of metastatic focuses was counted.

[5] = system: human pancreatic adenocarcinoma cell line Capan-1; experiment: Apoptosis by DAPI labeling and fluorescence microscope; format: cell-based
Protocol: The studies of possible induction of apoptosis by the PCI were done with the human pancreatic adenocarcinoma cell line Capan-1. The detailed procedure that was employed is as follows:
1. 5×10^5 cells were seed in the chambers/slides and were cultured for 3 o 4 days (until the moment in which, through microscope observation, they presented 75% of confluence). The cells were cultured in DMEM+10% FBS.
2. […] A positive control was added, cysplatinum, at a concentration of 10 μg/mL (a drug which induces apoptosis in various tumor cell lines, Borner, M. M., et al. (1995) Cancer Res., 55: 2122-2128. The incubation period was 24 h.
3. The medium was removed after incubation and the chamber was washed with 2 mL of PBS.
5. Cells were fixed with 2 mL of 2% formaldehyde for 20 min at 4° C.
6. The plates were washed again with 2 mL of PBS for 5 min at room temperature.
7. Cell membranes were permeabilized with 0.25% Triton ×100 in PBS for 5 min at 4° C.
8. Washed with PBS for 5 min at room temperature.
9. The cells were labeled with DAPI at a final concentration of 2 μg/mL for 50 min in darkness at room temperature.
10. The preparation was fitted with the fluoroprep medium and it was examined through the fluorescence microscope.
% apoptosis=(number of apoptotic cells/total number of cells)×100

[6] = system: human pancreatic adenocarcinoma cell line Panc-1; format: cell-based; details: SFM, 72 h

## PCI: potato carboxypeptidase inhibitor, isoform IIa, obtained by recombinant DNA techniques in E. coli (SEQ ID NO.2) (EQHADPICNKPCKTHDDCSGAWFCQACWNSARTCGPYVG; disulfide 12-27, 18-34, 8-24)
[1]; 10 μg/mL of PCI
  density reached by the stationary stage compared with the control cells: a half
[1]; Treated with 1 mg/mL
  Duplication time: 90 h
[1]; Treated with 10 mg/mL
  Duplication time: 130 h
[2]
  growth of pretreated cells cultured later in the absence of the protein compared to non-pretreated cells: approximately half
[3]
  stimulation of the migration compared to the control: 3.5 times
[3]; 17 h (control 29 cells)
  number of cells that passed through the Matrigel membrane: 110 cells
[4]; treatment 1: daily intraperitoneal 0.1 mg/mL of PCI in 0.1 mL PBS from day 6
  number of metastatic focuses in liver: 27 focuses
[4]; treatment 2: cells treated in vitro 4 days with 0.1 mg/mL of PCI before inoculation
  number of metastatic focuses in liver: 4±1 focuses
[5]; 0,1 mg/mL PCI, 24 h (negative control 0.08)
  % Apoptosis: 0.11%
[5]; 10 mg/mL PCI, 24 h
  % Apoptosis: 0.095%
[5]; 50 mg/mL PCI, 24 h
  % Apoptosis: 0.41%
[5]; 200 mg/mL PCI, 24 h
  % Apoptosis: 0.038%
[5]; PCI 50 μg/mL, 24 h
  index of apoptosis relative to the control: 5 times
[6]; EGF 10 ng/mL + 50 mg/mL wtPCI
  Growth (Percentage in relation to the average of the controls): 15.81%
[6]; Insulin 5 mg/mL + 50 mg/mL wtPCI
  Growth (Percentage in relation to the average of the controls): 26.34%

Reference: patent US6379959B1, “Metalocarboxypeptidase inhibitors and derived molecules used as antitumor agents” (Universitat Autonoma de Barcelona, priority 1996, dated 2002)
